Values after ≈ are worked out from the molar mass of the structure shown. Where a name gives a salt, the structure may show the parent alone. Read-outs that look alike come from different tables or passages of the source.
What was measured:
Escherichia coli = experiment: In vitro broth microdilution, 24-hour minimal inhibitory concentration (MIC); type: cell-based; conditions: Mueller-Hinton broth, read-out: Minimum Inhibitory Concentration
From the text: (§1) A standard microdilution method (National Committee for Clinical Standards. Tentative standard M7-T. Standard methods for dilution antimicrobial susceptibility tests for bacteria that grow aerobically. National Committee for Clinical Laboratory Standards, Villanova, Pa. 1982) with Mueller-Hinton broth is used to determine the 24-hour minimal inhibitory concentrations (MIC's) for test strains of Staphylococcus aureus and Escherichia coli.

Staphylococcus aureus [1] = experiment: as above; type: cell-based; conditions: Mueller-Hinton broth; for MIC: read-out: Minimum Inhibitory Concentration
From the text: as §1

Staphylococcus aureus [2] = experiment: In vivo activity against Staphylococcus aureus in an acute lethal mouse model; conditions: mice infected intraperitoneally, dosed 1 h and 4 h post-infection, survivors on seventh day
Method: The in vivo potency of these compounds is exemplified by the data summarized in Table X. Determinations of in vivo efficacy are performed by inoculating mice intraperitoneally with cultures of the infecting organism diluted to produce 100% mortality in control animals within twenty-four hours. The culture of S. aureus used to infect the animals was diluted to the required bacterial density using 5% aqueous hog gastric mucin. The compounds are dissolved or suspended in 0.25% aqueous Methocel® (Methocel®: Hydroxypropyl Methylcullulose, E15 Premium, Dow Chemical Company) for oral administration or sterile distilled water containing 5% dimethylsulfoxide (Fisher Scientific Company, Fairlawn, N.J.) for subcutaneous administration. The mice are dosed at one hour and at four hours post-infection. Mortality is recorded daily until test determination seven days post infection. The number of survivors in each treatment group on the seventh day after infection is used in the calculation of the ED50, the dose of compound that protects 50% of the mice (Litchfield,J. T. and Wildoxon. A simulated method for evaluating dose-effect experiments. J. Pharmacol Exp. Ther., 98:99-113, 1949).

[3] = Staphylococcus aureus, 168 h, Oral Administration, read-out: ED50
[4] = Staphylococcus aureus, sc, 168 h, Subcutaneous Administration, read-out: ED50

| SMILES | MIC (Escherichia coli) | MIC (Staphylococcus aureus [1]) | ED50 (Staphylococcus aureus [2]; [3]) | ED50 (Staphylococcus aureus [2]; [4]) | Minimum Inhibitory Concentration (Staphylococcus aureus [1]) | ED50 (Staphylococcus aureus [2]; Subcutaneous Administration, 10080 min) |
| --- | --- | --- | --- | --- | --- | --- |
| CC(=O)NC[C@H]1CN(c2ccc(-c3ccc(C(C)NN4CCN(C)CC4)cc3)cc2)C(=O)O1 (single isomer, unassigned) [Example 26, (l)-N-[3-(4-(4'-(1-(4-Methylpiperazinylamino)ethyl))phenyl)phenyl-2-oxooxazolidin-5-ylmethyl]acetamide] | > 128 µg/mL | 1 µg/mL (≈ 2.21 µM) |  |  |  |  |
| CC(=O)NC[C@H]1CN(c2ccc(-c3ccc(C(C)O)cc3)cc2)C(=O)O1 (single isomer, unassigned) [Example 27, (l)-N-[3-(4-(4'-(1-Hydroxyethyl)phenyl)phenyl)-2-oxooxazolidin-5-ylmethyl]acetamide] | > 128 µg/mL | 0.5 µg/mL (≈ 1.41 µM) | 6.6 mg/kg | 7.6 mg/kg |  |  |
| CC(=O)NC[C@H]1CN(c2ccc(-c3ccc(C(O)CCN(C)C)cc3)cc2)C(=O)O1 (single isomer, unassigned) [Example 58, (l)-N-[3-(4-(4'-(3-N,N-Dimethylamino-1-hydroxypropyl)phenyl)phenyl)-2-oxooxazolidin-5-ylmethyl]acetamide] | > 128 µg/mL | 1 µg/mL (≈ 2.43 µM) | 13.8 mg/kg | 2 mg/kg |  |  |
| CC(=O)NC[C@H]1CN(c2ccc(-c3ccc(C(O)CCN4CCOCC4)cc3)cc2)C(=O)O1 (single isomer, unassigned) [Example 59, (l)-N-[3-(4-(4'-(1-hydroxy-3-(4-morpholinyl)propyl)phenyl)phenyl)-2-oxooxazolidin-5-ylmethyl]acetamide] | > 128 µg/mL | 2 µg/mL (≈ 4.41 µM) | 7 mg/kg | 2.7 mg/kg |  |  |
| CC(=O)NC[C@H]1CN(c2ccc(-c3cccc([S+](C)[O-])c3)cc2)C(=O)O1 (single isomer, unassigned) [Example 65] | > 128 µg/mL | 2 µg/mL (≈ 5.37 µM) |  | 4.3 mg/kg |  |  |
| CC(=O)NC[C@H]1CN(c2ccc(-c3ccc([S+](C)[O-])cc3)cc2)C(=O)O1 (single isomer, unassigned) [Example 68, (l)-N-[3-(4-(4'-methylsulfinylphenyl)phenyl)-2-oxooxazolidin-5-ylmethyl]acetamide] | > 128 µg/mL | 0.25 µg/mL (≈ 0.671 µM) | 2.2 mg/kg | 0.7 mg/kg |  |  |
| CC(=O)NC[C@H]1CN(c2ccc(-c3ccccc3)cc2)C(=O)O1 [Example 3, (l)-N-[3-(4-Phenylphenyl)-2-oxooxazolidin-5-ylmethyl]acetamide] | > 128 µg/mL | 0.5 µg/mL (≈ 1.61 µM) | 2.9 mg/kg | 2 mg/kg |  |  |
| CC(=O)NC[C@H]1CN(c2ccc(-c3ccc(C(C)=O)cc3)cc2)C(=O)O1 [Example 4, (l)-N-[3-(4-(4'-Acetylphenyl)phenyl)-2-oxooxazolidin-5-ylmethyl]acetamide] | > 128 µg/mL | 0.5 µg/mL (≈ 1.42 µM) | 22 mg/kg | 39.7 mg/kg |  |  |
| CCC(=O)c1ccc(-c2ccc(N3C[C@H](CNC(C)=O)OC3=O)cc2)cc1 [Example 7] | > 128 µg/mL | 2 µg/mL (≈ 5.46 µM) |  | 90 mg/kg |  |  |
| CC(=O)NC[C@H]1CN(c2ccc(-c3ccc(C(=O)CCl)cc3)cc2)C(=O)O1 [Example 8] | > 128 µg/mL | < 0.13 µg/mL | > 90 mg/kg | > 90 mg/kg |  |  |
| CC(=O)NC[C@H]1CN(c2ccc(-c3ccc(C(=O)CCC(=O)O)cc3)cc2)C(=O)O1 [Example 9] | > 128 µg/mL | < 0.13 µg/mL | > 90 mg/kg | 16.8 mg/kg |  |  |
| CC(=O)NC[C@H]1CN(c2ccc(-c3ccc(C(=O)CC(C)(C)C(=O)O)cc3)cc2)C(=O)O1 [Example 10] | > 128 µg/mL | 0.5 µg/mL (≈ 1.14 µM) |  |  |  |  |
| CC(=O)NC[C@H]1CN(c2ccc(-c3ccc(I)cc3)cc2)C(=O)O1 [Example 20, (l)-N-[3-(4-(4'-Iodophenyl)phenyl)-2-oxooxazolidin-5-ylmethyl]acetamide] | > 128 µg/mL | 8 µg/mL (≈ 18.3 µM) | > 90 mg/kg | > 90 mg/kg |  |  |
| CC(=O)NC[C@H]1CN(c2ccc(-c3ccc(C=O)cc3)cc2)C(=O)O1 [Example 21, (l)-N-[3-(4-(4'-Formylphenyl)phenyl)-2-oxooxazolidin-5-ylmethyl]acetamide] | > 128 µg/mL | < 0.13 µg/mL | 44.7 mg/kg | > 90 mg/kg |  |  |
| CC(=O)NC[C@H]1CN(c2ccc(-c3ccc(C(C)=NO)cc3)cc2)C(=O)O1 [Example 22, (l)-N-[3-(4-(4'-(1-Hydroxyiminoethyl)phenyl)phenyl)-2-oxooxazolidin-5-ylmethyl]acetamide] | > 128 µg/mL | 0.25 µg/mL (≈ 0.68 µM) | > 90 mg/kg | > 90 mg/kg |  |  |
| CC(=O)NC[C@H]1CN(c2ccc(-c3ccc(C(C)=NOC(=O)CCC(=O)O)cc3)cc2)C(=O)O1 [Example 23, Sodium Salt of Succinate Hemiester of (l)-N-[3-(4-(4'-(1-Hydroxyiminoethyl)phenyl)phenyl)-2-oxooxazolidin-5-ylmethyl]acetamide] | > 128 µg/mL | 1 µg/mL | 17.3 mg/kg | 24.3 mg/kg |  |  |
| CC(=O)NC[C@H]1CN(c2ccc(-c3ccc(C(C)=NOCC(=O)O)cc3)cc2)C(=O)O1 [Example 24, (l)-N-[3-(4-(4'-(1-Carboxymethoxyliminoethyl)phenyl)phenyl)-2-oxooxazolidin-5-ylmethyl]acetamide] | > 128 µg/mL | 8 µg/mL (≈ 18.8 µM) | > 90 mg/kg | > 90 mg/kg |  |  |

| SMILES | MIC (Escherichia coli) | MIC (Staphylococcus aureus [1]) | ED50 (Staphylococcus aureus [2]; [3]) | ED50 (Staphylococcus aureus [2]; [4]) | Minimum Inhibitory Concentration (Staphylococcus aureus [1]) | ED50 (Staphylococcus aureus [2]; Subcutaneous Administration, 10080 min) |
| --- | --- | --- | --- | --- | --- | --- |
| CC(=O)NC[C@H]1CN(c2ccc(-c3ccc(C(C)=NN4CCN(C)CC4)cc3)cc2)C(=O)O1 [Example 25, (l)-N-[3-(4-(4'-Acetylphenyl)phenyl)-2-oxooxazolidin-5-ylmethyl]acetamide 4-Methylpiperazinylhydrazone] | > 128 µg/mL | 2 µg/mL (≈ 4.45 µM) | 13.9 mg/kg | 5.8 mg/kg |  |  |
| CC(=O)NC[C@H]1CN(c2ccc(-c3ccc(CO)cc3)cc2)C(=O)O1 [Example 28] | > 128 µg/mL | < 0.13 µg/mL | 52.6 mg/kg | 30 mg/kg |  |  |
| CC(=O)NC[C@H]1CN(c2ccc(-c3ccc(C(C)OC(=O)CCC(=O)O)cc3)cc2)C(=O)O1 (some centres unmarked) [Example 29] | > 128 µg/mL | 4 µg/mL (≈ 8.8 µM) | 16.1 mg/kg | 9.8 mg/kg |  |  |
| CC(=O)NC[C@H]1CN(c2ccc(-c3ccc(C(C)OC(=O)CCC(=O)O)cc3)cc2)C(=O)O1 (some centres unmarked) [Example 30] |  |  |  |  | 4 µg/mL | 9.8 mg/kg |
| CC(=O)NC[C@H]1CN(c2ccc(-c3ccc(C#N)cc3)cc2)C(=O)O1 [Example 37, (l)-N-[3-(4-(4'-Cyanophenyl)phenyl)-2-oxooxazolidin-5-ylmethyl]acetamide] | > 128 µg/mL | 0.25 µg/mL (≈ 0.745 µM) | < 1.2 mg/kg | 0.6 mg/kg |  |  |
| CC(=O)NC[C@H]1CN(c2ccc(-c3ccc(-c4nn[nH]n4)cc3)cc2)C(=O)O1 [Example 38, (l)-N-[3-(4-(4'-(5-Tetrazolyl)phenyl)phenyl)-2-oxooxazolidin-5-ylmethyl]acetamide] | > 128 µg/mL | 64 µg/mL (≈ 169 µM) |  | > 90 mg/kg |  |  |
| CCN(CC)Cc1ccc(-c2ccc(N3C[C@H](CNC(C)=O)OC3=O)cc2)cc1 [Example 43, (l)-N-[3-(4-(4'-diethylaminomethylphenyl)phenyl)-2-oxooxazolidin-5-ylmethyl]acetamide] | > 128 µg/mL | 4 µg/mL (≈ 10.1 µM) | 6.4 mg/kg | 3.7 mg/kg |  |  |
| CCCN(CCC)Cc1ccc(-c2ccc(N3C[C@H](CNC(C)=O)OC3=O)cc2)cc1 [Example 44, (l)-N-[3-(4-(4'-di-n-propylaminomethylphenyl)phenyl)-2-oxooxazolidin-5-ylmethyl]acetamide] | > 128 µg/mL | 4 µg/mL (≈ 9.44 µM) | 8.6 mg/kg | 3.7 mg/kg |  |  |
| CCCCNCc1ccc(-c2ccc(N3C[C@H](CNC(C)=O)OC3=O)cc2)cc1 [Example 45] | > 128 µg/mL | 0.5 µg/mL (≈ 1.26 µM) |  | 13.9 mg/kg |  |  |
| CCCCN(CCCC)Cc1ccc(-c2ccc(N3C[C@H](CNC(C)=O)OC3=O)cc2)cc1 [Example 46] | > 128 µg/mL | 4 µg/mL (≈ 8.86 µM) |  | 30 mg/kg |  |  |
| CCCCCN(CCCCC)Cc1ccc(-c2ccc(N3C[C@H](CNC(C)=O)OC3=O)cc2)cc1 [Example 47] | > 128 µg/mL | 0.5 µg/mL (≈ 1.04 µM) |  |  |  |  |
| CCCCCCCCN=Cc1ccc(-c2ccc(N3C[C@H](CNC(C)=O)OC3=O)cc2)cc1 [Example 48] | > 128 µg/mL | < 0.13 µg/mL |  |  |  |  |
| CCCCCCCCNCc1ccc(-c2ccc(N3C[C@H](CNC(C)=O)OC3=O)cc2)cc1 [Example 49] | > 128 µg/mL | 1 µg/mL (≈ 2.21 µM) | 65.2 mg/kg | > 90 mg/kg |  |  |
| CC(=O)NC[C@H]1CN(c2ccc(-c3ccc(OCCN(C)C)cc3)cc2)C(=O)O1 [Example 66, (l)-N-[3-(4-(4'-N,N-Dimethylaminoethyloxyphenyl)phenyl)-2-oxooxazolidin-5-ylmethyl]acetamide] | > 128 µg/mL | 0.5 µg/mL (≈ 1.26 µM) |  |  |  |  |
| COc1ccc(-c2ccc(N3C[C@H](CNC(C)=O)OC3=O)cc2)cc1 [Example 75] | > 128 µg/mL | < 0.13 µg/mL |  |  |  |  |
| CC(=O)NC[C@H]1CN(c2ccc(-c3cncc4ccccc34)cc2)C(=O)O1 [Example 92] | > 128 µg/mL | 2 µg/mL (≈ 5.53 µM) |  |  |  |  |
| CC(=O)NCC1CN(c2ccc(-c3ccc(N(C)C)cc3)cc2)C(=O)O1 (centres unmarked) [Example 115] | > 128 µg/mL | 16 µg/mL (≈ 45.3 µM) |  |  |  |  |

Reference: patent US5254577A, “Aminomethyloxooxazolidinyl arylbenzene derivatives useful as antibacterial agents” (The Du Pont Merck Pharmaceutical Company, priority 1992, dated 1993)
